Each structure is given as a SMILES string.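 A five-concentration, 48-hour dose response in 96-well plates underlies each endpoint, interpolated linearly between surrounding concentrations. GI50: concentration for 50% inhibition of growth. TGI: total growth inhibition.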

Here are results for nine compounds from PubChem BioAssay (NCI).

Among the test systems are U251 CNS; UO-31 renal; SW-620 colon; T-47D breast; ACHN renal; HS 578T breast; HCT-116 colon; IGROV1 ovarian; RPMI-8226 leukemia; HT29 colon; NCI-H226 lung; MDA-MB-435; MOLT-4 leukemia; NCI/ADR-RES ovarian; COLO 205 colon; SF-539 CNS.
Experiment in all cases: NCI anticancer screen, dose series, 48 h

Turning to `O=C(/C=C/c1ccc(Cl)cc1)c1cccs1`, the TGI was 29.5 µM in the test with U251 CNS; 31.9 µM with UO-31 renal; 30.4 µM in the test with SW-620 colon; 45.1 µM with T-47D breast; 37.5 µM in the test with ACHN renal; > 100 µM with HS 578T breast. In addition, the TGI was 33.8 µM in the test on HCT-116 colon; 75.3 µM in the test on IGROV1 ovarian; 8.29 µM in the test on RPMI-8226 leukemia; > 100 µM in the test with HT29 colon; 44.5 µM in the test with NCI-H226 lung; 25.9 µM in the test with MDA-MB-435. The TGI was 52.8 µM in the test on MOLT-4 leukemia, 74.4 µM with NCI/ADR-RES ovarian, 37.9 µM in the test with COLO 205 colon and > 100 µM in the test on SF-539 CNS.
Consider `C/C(=N\NC(=S)Nc1ccc(C)cc1)c1nc2ncccc2[nH]1`, for which the TGI with U251 CNS turned out to be 15.4 µM; in the test with UO-31 renal, 4.05 µM; with SW-620 colon, 24 µM; in the test with T-47D breast it was 18 µM; in the test on ACHN renal, 14.3 µM; in the test with HS 578T breast, 58.9 µM. Further, the TGI in the test on HCT-116 colon was 14.3 µM; in the test on IGROV1 ovarian, 17.3 µM; in the test on RPMI-8226 leukemia, > 100 µM; in the test on HT29 colon it was 14.5 µM; in the test with NCI-H226 lung, 8.01 µM; in the test with MDA-MB-435, 13.3 µM. Further, the TGI with MOLT-4 leukemia is 17.6 µM; in the test with NCI/ADR-RES ovarian, > 100 µM; with COLO 205 colon, 17.6 µM; in the test on SF-539 CNS, 5.71 µM.
With `O=c1c2cn[nH]c2nc2scc(-c3ccc(Cl)cc3)n12`, the TGI in the test on U251 CNS, in the test with UO-31 renal, with SW-620 colon, in the test on T-47D breast, in the test on ACHN renal and in the test with HS 578T breast was > 100 µM each time. For the same compound, the TGI in the test on HCT-116 colon, in the test with IGROV1 ovarian, in the test on RPMI-8226 leukemia, in the test with HT29 colon, in the test on NCI-H226 lung and in the test on MDA-MB-435 was > 100 µM each time. Also, the TGI in the test with MOLT-4 leukemia, in the test on NCI/ADR-RES ovarian, with COLO 205 colon and in the test with SF-539 CNS was > 100 µM throughout.
As to `CCOc1cc2c(cc1O)/C(=N/NS(=O)(=O)c1ccc(C)cc1)C[C@@H]1[C@@H]2CC[C@]2(C)[C@@H](O)CC[C@@H]12`, the TGI is > 100 µM with U251 CNS; > 100 µM with UO-31 renal; > 100 µM in the test on SW-620 colon; > 100 µM in the test on T-47D breast; 81.2 µM in the test with ACHN renal; > 100 µM with HS 578T breast. For the same compound, the TGI with HCT-116 colon was > 100 µM; in the test with IGROV1 ovarian, > 100 µM; in the test on RPMI-8226 leukemia, 16 µM; with HT29 colon, > 100 µM; in the test on NCI-H226 lung, 68.7 µM; with MDA-MB-435 it was > 100 µM. In addition, the TGI was 7.04 µM in the test on MOLT-4 leukemia, > 100 µM with NCI/ADR-RES ovarian, 17.4 µM with COLO 205 colon and 65.6 µM with SF-539 CNS. In addition, the GI50 in the test with HCT-116 colon was 6.67 µM; in the test with MDA-MB-435, 0.917 µM.
As to `C[n+]1cccc2ccc(OC(=O)c3ccccc3)cc21`, the TGI with UO-31 renal, in the test on SW-620 colon, with T-47D breast, with ACHN renal, with HS 578T breast and in the test on HCT-116 colon was > 100 µM throughout. Besides, the TGI in the test with IGROV1 ovarian, in the test with RPMI-8226 leukemia, in the test on HT29 colon, in the test with NCI-H226 lung, with MDA-MB-435 and in the test with MOLT-4 leukemia was > 100 µM in each case. The TGI with NCI/ADR-RES ovarian, in the test on COLO 205 colon and in the test with SF-539 CNS was > 100 µM in each case.
With `CC(=O)O[C@H]1CCn2c3c(c(C)c21)C(=O)C(N1CC1)=C(C)C3=O`, the TGI in the test with U251 CNS, in the test with SW-620 colon, with T-47D breast, in the test with ACHN renal, in the test with HS 578T breast and with HCT-116 colon was > 10 µM throughout. Moreover, the TGI in the test on IGROV1 ovarian, with RPMI-8226 leukemia, in the test on HT29 colon, in the test on NCI-H226 lung, in the test on MDA-MB-435 and in the test with MOLT-4 leukemia was > 10 µM in each case. For the same compound, the TGI in the test with NCI/ADR-RES ovarian, in the test on COLO 205 colon and with SF-539 CNS was > 10 µM each time.
On to `COC(=O)[C@@]12C(=O)C(C)C(=O)[C@]1(C)C(C)=C[C@H]1[C@]3(C=O)CC[C@H](OC(C)=O)C(C)(C)[C@H]3CC[C@@]12C` (stereo partly specified), for which the TGI with U251 CNS, with UO-31 renal, with SW-620 colon, in the test with T-47D breast, in the test on ACHN renal and in the test on HS 578T breast was > 100 µM in each case. Moreover, the TGI is > 100 µM with HCT-116 colon; > 100 µM in the test with RPMI-8226 leukemia; > 100 µM with HT29 colon; > 100 µM with NCI-H226 lung; > 100 µM in the test with MDA-MB-435; 69.1 µM in the test on MOLT-4 leukemia. Further, the TGI with NCI/ADR-RES ovarian, in the test with COLO 205 colon and in the test on SF-539 CNS was > 100 µM each time.
`c1ccc2c(c1)nc1n2C2CCC(C2)N1` (stereo unspecified): the TGI with U251 CNS, in the test with UO-31 renal, with SW-620 colon, with T-47D breast, in the test with HS 578T breast and in the test on HCT-116 colon was > 10 µM each time. The TGI in the test on IGROV1 ovarian, in the test with RPMI-8226 leukemia, in the test on HT29 colon, with NCI-H226 lung, in the test with MDA-MB-435 and in the test with MOLT-4 leukemia was > 10 µM throughout. Moreover, the TGI in the test on NCI/ADR-RES ovarian, in the test on COLO 205 colon and in the test with SF-539 CNS was > 10 µM each time.
For `Cn1c(=O)c2c(ncn2CCCCOc2ccc3c(c2)[n+]([O-])nc(N)[n+]3[O-])n(C)c1=O`, the TGI in the test on U251 CNS was 91.8 µM; in the test on UO-31 renal it was > 100 µM; in the test on SW-620 colon, > 100 µM; with T-47D breast it was 12.1 µM; in the test with HS 578T breast, > 100 µM; in the test with HCT-116 colon, > 100 µM. In addition, the TGI in the test with IGROV1 ovarian is 67.6 µM; in the test with RPMI-8226 leukemia, > 100 µM; with HT29 colon it was > 100 µM; with NCI-H226 lung, 79.6 µM; with MDA-MB-435, > 100 µM; with MOLT-4 leukemia, > 100 µM. The figures for the TGI with NCI/ADR-RES ovarian, in the test on COLO 205 colon and in the test with SF-539 CNS were > 100 µM, 43.2 µM and 70 µM, respectively.
